The source of these data is patent publication US10766912B2 (priority 2017, dated 2020).

The test deals with HCV GT1b wild-type replicon. Briefly: Assay Example 1: activity against HCV GT1b wild-type replicon (luciferase, transient transfection). Conditions: Hepatitis C virus, 72 h, Huh 7 cells, 3 days. It is filed as cell-based. The protocol: Cells: Huh 7 cell line and HCV GT1b/3a and GT1b/6a NS5A chimeric replicons and GT1b and GT1a wild-type replicon RNA.
Treatment of Compound: According to the assay final concentrations of the compounds in Table 2, DMSO stock solutions of the compounds were diluted and then added to a 96-well assay plate. The final concentration of DMSO was 0.5%.
The preparation of cells: After replicon plasmid DNA was linearized with a corresponding restriction enzyme, the DNA was transcribed into RNA by using T7RNA polymerase. Replicon RNA prepared by transcription in vitro was transfected into Huh-7 cells by electroporation. Transfected cells were seeded at a density of 10,000 cells per well into the 96-well assay plate containing the diluted compounds, and then the plate was placed in a 37° C. incubator with 5% CO2 and cultured for 3 days.
Drug activity assay: Luminescence signal value (RLU) was detected with Envision within 15 minutes using the luciferase assay reagent Britelite plus, and the original data (RLU) was used for the calculation of the activity of the compounds.
The activity of the compounds was calculated by using the equation below: Inhibition %=(ZPE−CPD)/(ZPE−HPE)×100%*
The cell viability percentages (Viability %) and the inhibition percentages (Inhibition %) were imported into GraphPad Prism software, respectively, and curves were fitted by using nonlinear regression method to obtain the corresponding curves of the compounds, and the cytotoxicity (CC50) thereof and inhibitory activity (EC50) values against the HCV replicon thereof.

The structures appear in SMILES notation.

Broadly, the EC50 is the concentration that produces a half-maximal response. For the compound `COC(=O)N[C@H](C(=O)N1CCC[C@H]1C(=O)Nc1ccc([C@H]2CC[C@H](c3ccc4nc([C@@H]5CCCN5C(=O)[C@@H](NC(=O)OC)[C@@H](C)OC)[nH]c4c3)N2c2cc(F)c(N3CC[Si](C)(C)CC3)c(F)c2)cc1)[C@@H](C)OC` [Compound 6b], the EC50 turned out to be 6.7 pM.
